This is an account of results in patent US7732449B2, “Inhibitors of cathepsin S” (IRM LLC, priority 2003, dated 2010).

Like-named read-outs stand apart in the source and are kept apart here. Bounds are passed on as bounds.

Holding throughout (assay type): biochemical
One assay deals with Cathepsin L (Homo sapiens, UniProt P07711). Put plainly: Cathepsin L inhibition, fluorogenic peptide substrate kinetic assay (selectivity). The settings on record: ratio of cathepsin L inhibition constant to cathepsin S inhibition constant.
Chain of Cathepsin L (P07711 114-333, species assumed): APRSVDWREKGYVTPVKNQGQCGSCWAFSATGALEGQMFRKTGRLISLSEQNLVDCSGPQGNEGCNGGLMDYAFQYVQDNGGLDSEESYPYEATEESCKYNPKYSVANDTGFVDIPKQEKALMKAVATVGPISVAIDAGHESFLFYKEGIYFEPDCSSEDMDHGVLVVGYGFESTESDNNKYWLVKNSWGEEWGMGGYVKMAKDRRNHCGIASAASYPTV
For a further assay, the target named is Cathepsin S (Homo sapiens, UniProt P25774). Put plainly: Cathepsin S inhibition, fluorogenic peptide substrate kinetic assay.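 Note: cleavage rate of a coumarin-labelled peptide substrate (50 µM) read as fluorescence increase at Ex 380 nm and Em 450 nm, relative to inhibitor-free control reactions.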
Chain of Cathepsin S (P25774 115-331, species assumed): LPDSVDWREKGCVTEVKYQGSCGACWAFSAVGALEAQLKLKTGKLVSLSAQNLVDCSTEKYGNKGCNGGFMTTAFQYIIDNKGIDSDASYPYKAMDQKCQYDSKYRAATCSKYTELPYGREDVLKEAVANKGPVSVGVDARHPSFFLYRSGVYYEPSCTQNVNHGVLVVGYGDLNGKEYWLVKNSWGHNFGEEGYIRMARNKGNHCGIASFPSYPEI
The target of the next assay is Cathepsin B (Homo sapiens, UniProt P07858). Briefly: Cathepsin B inhibition, fluorogenic peptide substrate kinetic assay (selectivity).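 Note: value is the cathepsin B inhibition constant divided by the cathepsin S one, each from kinetic fluorescence readings (ex 380 nm, em 450 nm) of a 10 µM coumarin peptide substrate.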 The settings on record: ratio of cathepsin B inhibition constant to cathepsin S inhibition constant.
In a further assay the target is T1, Cathepsin K (Homo sapiens, UniProt P43235).
T1 sequence (P43235 115-329): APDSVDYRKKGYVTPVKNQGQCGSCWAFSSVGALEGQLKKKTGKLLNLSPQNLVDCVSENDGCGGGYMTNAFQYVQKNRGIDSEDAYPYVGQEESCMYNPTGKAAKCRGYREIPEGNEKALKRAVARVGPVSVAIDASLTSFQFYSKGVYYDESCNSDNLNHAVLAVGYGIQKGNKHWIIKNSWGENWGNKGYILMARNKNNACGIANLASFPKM
Briefly: Cathepsin K inhibition, fluorogenic peptide substrate kinetic assay (selectivity). The settings on record: ratio of cathepsin K inhibition constant to cathepsin S inhibition constant.

[1] abbreviates: Cathepsin S inhibition constant, pH5.5, 20 minutes preincubation at room temperature, read-out: Ki Cat. S.

Regarding `CC(C)[C@@H](CN1CC(C)(C)c2cc(F)ccc21)NC(=O)OC(C(=O)N1CCOCC1)c1ccccc1` (mixture of isomers) [Example 109, [1-(S)-(5-Fluoro-3,3-dimethyl-2,3-dihydro-indol-1-ylmethyl)-2-methyl-propyl]-carbamic acid 2-morpholin-4-yl-2-oxo-1-(R,S)-phenyl-ethyl ester], the “Selectivity for Cat. S over Cat. L” value at Cathepsin L was “+ (+, >10)”. The inhibitory constant (Ki) on Cathepsin S (setting [1]) was in the range of 1000 to 10000 nM. Besides, the “Selectivity for Cat. S over Cat. B” value on Cathepsin B is listed as “+ (+, >10)”.
Turning to `O=C(NCCN1CCc2cc(F)ccc21)[C@H](CC1CCCCC1)OC(=O)N1CCOCC1` [Example 1, Morpholine-4-carboxylic acid (S)-2-cyclohexyl-1-[2-(5-fluoro-2,3-dihydro-indol-1-yl)-ethylcarbamoyl]-ethyl ester], the Ki at Cathepsin S (setting [1]) lay in the range of 1000 to 10000 nM. On Cathepsin B, the “Selectivity for Cat. S over Cat. B” value is given as “+ (+, >10)”.
As to `C[C@@H](CNc1ccc(OC(F)(F)F)cc1)NC(=O)[C@H](CSCc1ccccc1)NC(=O)N1CCOCC1` [Example 17, Morpholine-4-carboxylic acid {2-benzylsulfanyl-1-(R)-[1-(S)-methyl-2-(4-trifluoromethoxy-phenylamino)-ethylcarbamoyl]-ethyl}-amide], the Ki on Cathepsin S (setting [1]) was below 100 nM.
`O=C(N[C@@H](CCc1ccccc1)CNc1ccc(OC(F)(F)F)cc1)[C@@H](CC(=O)N1CCOCC1)CC1CCCCC1` [Example 23, 2-(R)-Cyclohexylmethyl-4-morpholin-4-yl-4-oxo-N-{3-phenyl-1-(S)-[(4-trifluoromethoxy-phenylamino)-methyl]-propyl}-butyramide]: the “Selectivity for Cat. S over Cat. K” value at Cathepsin K is recorded as “+ (+, >10)”. This compound also returned an inhibition constant Ki at Cathepsin S below 100 nM. For the same compound, the “Selectivity for Cat. S over Cat. B” value at Cathepsin B is “++ (++, >100)”.
As to `CC(C)[C@@H](CNc1ccc(OC(F)(F)F)cc1)NC(=O)[C@@H](CC(=O)N1CCOCC1)CC1CCCCC1` [Example 24, 2-(R)-Cyclohexylmethyl-N-{2-methyl-1-(S)-[(4-trifluoromethoxy-phenylamino)-methyl]-propyl}-4-morpholin-4-yl-4-oxo-butyramide], on Cathepsin S, the inhibition constant (Ki) was below 100 nM.
The same measure, in the same setting: the figure for `CS(=O)(=O)CC[C@@H](CNc1ccc(OC(F)(F)F)cc1)NC(=O)[C@@H](CC(=O)N1CCOCC1)CC1CCCCC1` [Example 28, 2-(R)-Cyclohexylmethyl-N-{3-methanesulfonyl-1-(S)-[(4-trifluoromethoxy-phenylamino)-methyl]-propyl}-4-morpholin-4-yl-4-oxo-butyramide] is below 100 nM.
In turn, `CS(=O)(=O)CC[C@H](CNc1ccc(OC(F)(F)F)cc1)NC(=O)[C@@H](CC(=O)N1CCOCC1)CC1CCCCC1` [Example 29, 2-(R)-Cyclohexylmethyl-N-{3-methanesulfonyl-1-(R)-[(4-trifluoromethoxy-phenylamino)-methyl]-propyl}-4-morpholin-4-yl-4-oxo-butyramide] yielded an inhibitory constant (Ki) on Cathepsin S below 100 nM.
In the case of `CC(C)[C@@H](CNc1ccc(OC(F)(F)F)cc1)NC(=O)[C@H](CCCc1ccccc1)CC(=O)N1CCOCC1` [Example 30, 2-(R)-(2-Morpholin-4-yl-2-oxo-ethyl)-5-phenyl-pentanoic acid {2-methyl-1-(S)-[(4-trifluoromethoxy-phenylamino)-methyl]-propyl}-amide], on Cathepsin S, the Ki is below 100 nM.
Still for that read-out and setting: the figure for `CC(C)[C@@H](CNc1ccc(OC(F)(F)F)cc1)NC(=O)[C@@H](CC(=O)N1CCOCC1)CC1CCCC1` [Example 31, 2-(R)-Cyclopentylmethyl-N-{2-methyl-1-(S)-[(4-trifluoromethoxy-phenylamino)-methyl]-propyl}-4-morpholin-4-yl-4-oxo-butyramide] is below 100 nM; for `CC(C)[C@@H](CNc1ccc(OC(F)(F)F)cc1)NC(=O)[C@H](CCC1CCCC1)CC(=O)N1CCOCC1` [Example 33, 2-(R)-(2-Cyclopentyl-ethyl)-N-{2-methyl-1-(S)-[(4-trifluoromethoxy-phenylamino)-methyl]-propyl}-4-morpholin-4-yl-4-oxo-butyramide] it is below 100 nM.
`CC[C@@H](CNc1ccc(OC(F)(F)F)cc1)NC(=O)[C@H](CCc1ccccc1)CC(=O)N1CCOCC1` [Example 38, 4-Morpholin-4-yl-4-oxo-2-(R)-phenethyl-N-{1-(S)-[(4-trifluoromethoxy-phenylamino)-methyl]-propyl}-butyramide]: the Ki on Cathepsin S is below 100 nM. At Cathepsin B, the “Selectivity for Cat. S over Cat. B” value is “+++ (+++, >1000)”.
Regarding `O=C(N[C@@H](CCc1ccccc1)CNc1ccc(OC(F)(F)F)cc1)[C@@H](CC(=O)N1CCOCC1)c1ccccc1` [Example 40, 4-Morpholin-4-yl-4-oxo-2-(S)-phenyl-N-{3-phenyl-1-(S)-[(4-trifluoromethoxy-phenylamino)-methyl]-propyl}-butyramide], the Ki at Cathepsin S was below 100 nM.
The same measure, in the same setting: the figure for `O=C(N[C@H](CNc1ccc(OC(F)(F)F)cc1)c1ccccc1)[C@@H](CC(=O)N1CCOCC1)c1ccccc1` [Example 44, 4-Morpholin-4-yl-4-oxo-2-(S)-phenyl-N-[1-(S)-phenyl-2-(4-trifluoromethoxy-phenylamino)-ethyl]-butyramide] is 100 to 1000 nM.
Turning to `C[C@@H]1CN(C(=O)C[C@@H](CC2CCCCC2)C(=O)N[C@@H](C)CNc2ccc(OC(F)(F)F)cc2)C[C@H](C)O1` [Example 50, 2-(R)-Cyclohexylmethyl-4-(cis-2,6-dimethyl-morpholin-4-yl)-N-[1-(S)-methyl-2-(4-trifluoromethoxy-phenylamino)-ethyl]-4-oxo-butyramide], on Cathepsin K, the “Selectivity for Cat. S over Cat. K” value is listed as “++ (++, >100)”. At Cathepsin S (setting [1]), the Ki is below 100 nM. Also, at Cathepsin B, the “Selectivity for Cat. S over Cat. B” value was “+++ (+++, >1000)”.
Consider `C[C@@H](CN1CC(C)(C)c2cc(F)ccc21)NC(=O)[C@@H](CC(=O)N1CCOCC1)c1ccc(C(F)(F)F)cc1` [Example 66, N-[2-(5-Fluoro-3,3-dimethyl-2,3-dihydro-indol-1-yl)-1-(S)-methyl-ethyl]-4-morpholin-4-yl-4-oxo-2-(S)-(4-trifluoromethyl-phenyl)-butyramide], for which the inhibition constant Ki on Cathepsin S (setting [1]) is 1000 to 10000 nM. Also, the “Selectivity for Cat. S over Cat. B” value at Cathepsin B is “+ (+, >10)”.
For `CS(=O)(=O)CC[C@@H](CNc1ccc(OC(F)(F)F)cc1)NC(=O)[C@H](CC1CCCCC1)NC(=O)N1CCOCC1` [Example 74, Morpholine-4-carboxylic acid (2-cyclohexyl-1-(S)-{3-methanesulfonyl-1-(S)-[(4-trifluoromethoxy-phenylamino)-methyl]-propylcarbamoyl}-ethyl)-amide], on Cathepsin K, the “Selectivity for Cat. S over Cat. K” value was “+ (+, >10)”. The inhibition constant (Ki) at Cathepsin S (setting [1]) is below 100 nM. The “Selectivity for Cat. S over Cat. B” value at Cathepsin B is reported as “+ (+, >10)”.
`CC[C@@H](CNc1ccc(OC(F)(F)F)cc1)NC(=O)[C@H](CC1CCCCC1)NC(=O)N1CCOCC1` [Example 75, Morpholine-4-carboxylic acid (2-cyclohexyl-1(S)-{1-(S)-[(4-trifluoromethoxy-phenylamino)-methyl]-propylcarbamoyl}-ethyl)-amide]: at Cathepsin K, the “Selectivity for Cat. S over Cat. K” value is “+ (+, >10)”. At Cathepsin S (setting [1]), the Ki is below 100 nM. The “Selectivity for Cat. S over Cat. B” value at Cathepsin B is “+ (+, >10)”.
For the compound `CC(C)[C@@H](CNc1cccnc1)NC(=O)[C@H](CC1CCCCC1)NC(=O)N1CCOCC1` [Example 76, Morpholine-4-carboxylic acid {2-cyclohexyl-1-(S)-[2-methyl-1-(S)-(pyridin-3-ylaminomethyl)-propylcarbamoyl]-ethyl}-amide], the “Selectivity for Cat. S over Cat. K” value at Cathepsin K was “+ (+, >10)”. Further, at Cathepsin S (setting [1]), the inhibition constant Ki was 100 to 1000 nM. In addition, at Cathepsin B, the “Selectivity for Cat. S over Cat. B” value was “+ (+, >10)”.
Turning to `C[C@@H](CNc1nc2ccccc2s1)NC(=O)[C@H](CC1CCCCC1)NC(=O)N1CCOCC1` [Example 78, Morpholine-4-carboxylic acid {1-(S)-[2-(benzothiazol-2-ylamino)-1-(S)-methyl-ethylcarbamoyl]-2-cyclohexyl-ethyl}-amide], the “Selectivity for Cat. S over Cat. K” value on Cathepsin K is on record as “+ (+, >10)”. The Ki on Cathepsin S (setting [1]) is 1000 to 10000 nM. The “Selectivity for Cat. S over Cat. B” value at Cathepsin B is reported as “+ (+, >10)”.
As to `C[C@@H](CNc1nc2ccccc2o1)NC(=O)[C@H](CC1CCCCC1)NC(=O)N1CCOCC1` [Example 79, Morpholine-4-carboxylic acid {1-(S)-[2-(benzooxazol-2-ylamino)-1-(S)-methyl-ethylcarbamoyl]-2-cyclohexyl-ethyl}-amide], the “Selectivity for Cat. S over Cat. K” value at Cathepsin K is recorded as “+ (+, >10)”. Besides, at Cathepsin S (setting [1]), the Ki lay within 1000 to 10000 nM. In addition, the “Selectivity for Cat. S over Cat. B” value at Cathepsin B was “+ (+, >10)”.
For `O=C(N[C@H](CN1CC2(CC2)c2cc(F)ccc21)C1CC1)[C@H](CC1CCCCC1)NC(=O)N1CCOCC1` [Example 82, Morpholine-4-carboxylic acid {2-cyclohexyl-1-(S)-[1-(S)-cyclopropyl-2-(5-fluoro-3,3-spirocyclopropyl-2,3-dihydro-indol-1-yl)-ethylcarbamoyl]-ethyl}-amide], on Cathepsin K, the “Selectivity for Cat. S over Cat. K” value is “++ (++, >100)”. In addition, the Ki at Cathepsin S (setting [1]) is below 100 nM. Also, the “Selectivity for Cat. S over Cat. B” value at Cathepsin B was “++ (++, >100)”.
In the case of `C[C@@H]1CN(C(=O)[C@H](CC2CCCCC2)OC(=O)N[C@@H](C)CN2c3ccc(F)cc3CC2(C)C)C[C@H](C)O1` [Example 93, [2-(5-Fluoro-2,2-dimethyl-2,3-dihydro-indol-1-yl)-1-(S)-methyl-ethyl]-carbamic acid 1-(S)-cyclohexylmethyl-2-(2,6-cis-dimethyl-morpholin-4-yl)-2-oxo-ethyl ester], the “Selectivity for Cat. S over Cat. K” value at Cathepsin K is listed as “+ (+, >10)”. The Ki on Cathepsin S (setting [1]) fell in the range of 1000 to 10000 nM. Also, at Cathepsin B, the “Selectivity for Cat. S over Cat. B” value is given as “+ (+, >10)”.
